Experimental data: patent publication US8088791B2, “Antibacterial agents” (Biots Scientific Management Pty Ltd, priority 2006, dated 2012)
In brackets after ≈: the same amount, converted by molar mass.

Columns and labels:
Bacillus subtilis 168CA = assay: Minimum Inhibitory Concentration (MIC) testing, broth microdilution, Bacillus subtilis; format: cell-based; conditions: Bacillus subtilis 168CA; for MIC: read-out: Bacillus subtilis MICs Activity
Method in brief: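 Broth microdilution followed NCCLS M7-A5, in rich broth such as Mueller Hinton, inoculum at OD 0.09 diluted 1:100, compounds in 1.6% DMSO before inoculum. After 16–20 h at 37 °C, MIC was the lowest concentration without visible growth. Score A: ≦8 μg/ml, B: 16–64 μg/ml, C: >64 μg/ml.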

[1] = test system: Staphylococcus aureus ATCC29213; assay: Minimum Inhibitory Concentration (MIC) testing, broth microdilution, Staphylococcus aureus; format: cell-based; conditions: Staphylococcus aureus ATCC29213; for MIC: read-out: Staphylococcus aureus MICs Activity
Method in brief: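 Broth microdilution per NCCLS M7-A5 in Mueller Hinton broth, with compound in 1.6% DMSO and inoculum at OD 0.09 diluted 1:100. Plates incubated 16–20 h at 37°C. MIC is the lowest concentration with no visible growth; scored A ≤8, B 16–64, C >64 μg/ml.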

NC(=O)c1c(F)ccc(OCc2nc(-c3ccc(Cl)cc3)no2)c1Cl [Example 270, 2-Chloro-3-[3-(4-chloro-phenyl)-[1,2,4]oxadiazol-5-ylmethoxy]-6-fluoro-benzamide]
MIC (Bacillus subtilis 168CA): < 8 mg/L
MIC [1]: < 8 mg/L

NC(=O)c1c(F)ccc(OCc2cccs2)c1F [Example 186, 2,6-Difluoro-3-(2-thienylmethoxy)benzenecarboxamide]
MIC (Bacillus subtilis 168CA): < 8 mg/L
MIC [1]: 16 to 64 mg/L (≈ 59.4 to 238 µM)

CCCCCCOc1cc(F)cc(C(N)=O)c1 [Example 167, 3-Fluoro-5-hexyloxy benzamide]
MIC (Bacillus subtilis 168CA): 16 to 64 mg/L (≈ 66.9 to 267 µM)
MIC [1]: 16 to 64 mg/L (≈ 66.9 to 267 µM)

NC(=O)c1c(F)ccc(OCc2nc3ccccc3o2)c1F [Example 209, 3-(1,3-Benzoxazol-2-ylmethoxy)-2,6-difluorobenzenecarboxamide]
MIC (Bacillus subtilis 168CA): 16 to 64 mg/L (≈ 52.6 to 210 µM)
MIC [1]: > 64 mg/L

NC(=O)c1c(F)ccc(OCc2nc(-c3ccccc3)no2)c1F [Example 240, 2,6-Difluoro-3-[(3-phenyl-1,2,4-oxadiazol-5-yl)methoxy]benzenecarboxamide]
MIC (Bacillus subtilis 168CA): < 8 mg/L
MIC [1]: < 8 mg/L

CCCCCCOc1cccc(C(N)=O)c1 [Example 8, 3-(Hexyloxy)benzenecarboxamide]
MIC (Bacillus subtilis 168CA): 16 to 64 mg/L (≈ 72.3 to 289 µM)
MIC [1]: 16 to 64 mg/L (≈ 72.3 to 289 µM)

NC(=O)c1c(F)ccc(OCc2nc3cc([N+](=O)[O-])ccc3s2)c1F [Example 117, 2,6-Difluoro-3-(5-nitro-benzothiazol-2-ylmethoxy)-benzamide]
MIC (Bacillus subtilis 168CA): < 8 mg/L
MIC [1]: < 8 mg/L

NC(=O)c1c(F)ccc(OCc2nc(Cc3ccccc3)no2)c1F [Example 266, 3-[(3-Benzyl-1,2,4-oxadiazol-5-yl)methoxy]-2,6-difluorobenzenecarboxamide]
MIC (Bacillus subtilis 168CA): 16 to 64 mg/L (≈ 46.3 to 185 µM)
MIC [1]: 16 to 64 mg/L (≈ 46.3 to 185 µM)

CCCCCCCCCCCOc1ccc(F)c(C(N)=O)c1 [Example 72, 2-Fluoro-5-(undecyloxy)benzenecarboxamide]
MIC (Bacillus subtilis 168CA): 16 to 64 mg/L (≈ 51.7 to 207 µM)
MIC [1]: 16 to 64 mg/L (≈ 51.7 to 207 µM)

NC(=O)c1c(F)ccc(OCCn2cccn2)c1F [Example 144, 2,6-Difluoro-3-(2-pyrazol-1-yl-ethoxy) benzamide]
Bacillus subtilis MICs Activity (Bacillus subtilis 168CA): C (‘C’ if the MIC was greater than 64 micrograms/ml)
Staphylococcus aureus MICs Activity [1]: C (‘C’ if the MIC was greater than 64 micrograms/ml)

COc1ccc2sc(COc3ccc(F)c(C(N)=O)c3F)nc2c1 [Example 119, 2,6-Difluoro-3-(5-methoxy-benzothiazol-2-ylmethoxy)-benzamide]
MIC (Bacillus subtilis 168CA): < 8 mg/L
MIC [1]: < 8 mg/L

CC(=O)OCCCCCOc1cccc(C(N)=O)c1 [Example 18, 5-[3-(Aminocarbonyl)phenoxy]pentyl acetate]
MIC (Bacillus subtilis 168CA): > 64 mg/L
MIC [1]: > 64 mg/L

COc1ccc(-c2csc(COc3ccc(F)c(C(N)=O)c3F)n2)cc1 [Example 105, 3-[4-(4-Methoxyphenyl)thiazol-2-ylmethoxy]-2,6-difluoro-benzamide]
MIC (Bacillus subtilis 168CA): < 8 mg/L
MIC [1]: < 8 mg/L

COc1ccc(-c2nc(COc3ccc(F)c(C(N)=O)c3F)sc2-c2ccccc2OC)cc1 [Example 280, 2,6-Difluoro-3-[5-(2-methoxy-phenyl)-4-(4-methoxy-phenyl)-thiazol-2-ylmethoxy]-benzamide]
MIC (Bacillus subtilis 168CA): < 8 mg/L
MIC [1]: < 8 mg/L

NC(=O)c1cccc(OCCCCCCc2ccccc2)c1 [Example 36, 3-[(6-Phenylhexyl)oxy]benzenecarboxamide]
MIC (Bacillus subtilis 168CA): < 8 mg/L
MIC [1]: > 64 mg/L

NC(=O)c1c(F)ccc(OCc2nc3cc(-c4ccccc4N)ccc3s2)c1F [Example 141, 3-[5-(2-Amino-phenyl)-benzothiazol-2-ylmethoxy]-2,6-difluoro-benzamide]
MIC (Bacillus subtilis 168CA): < 8 mg/L
MIC [1]: < 8 mg/L

NC(=O)c1c(F)ccc(OCc2coc(-c3cccs3)n2)c1F [Example 133, 2,6-Difluoro-3-(2-thiophen-2-yl-oxazol-4-ylmethoxy)-benzamide]
MIC (Bacillus subtilis 168CA): < 8 mg/L
MIC [1]: < 8 mg/L

NC(=O)c1cc(OCc2nc(-c3ccc(Cl)cc3)no2)ccc1F [Example 268, 5-[3-(4-Chloro-phenyl)-[1,2,4]oxadiazol-5-ylmethoxy]-2-fluoro-benzamide]
MIC (Bacillus subtilis 168CA): < 8 mg/L
MIC [1]: 16 to 64 mg/L (≈ 46 to 184 µM)

NC(=O)c1c(Cl)ccc(OCc2nc(-c3ccc(Cl)cc3)no2)c1F [Example 269, 6-Chloro-3-[3-(4-chloro-phenyl)-[1,2,4]oxadiazol-5-ylmethoxy]-2-fluoro-benzamide]
MIC (Bacillus subtilis 168CA): < 8 mg/L
MIC [1]: < 8 mg/L

NC(=O)c1c(F)ccc(OCc2csc(-c3ccc(F)cc3)n2)c1F [Example 305, 2,6-Difluoro-3-[2-(4-fluoro-phenyl)-thiazol-4-ylmethoxy]-benzamide]
MIC (Bacillus subtilis 168CA): < 8 mg/L
MIC [1]: < 8 mg/L

NC(=O)c1c(F)ccc(OCc2nc(-c3nccs3)no2)c1F [Example 326, 2,6-Difluoro-3-(3-thiazol-2-yl-[1,2,4]oxadiazol-5-ylmethoxy)-benzamide]
MIC (Bacillus subtilis 168CA): 16 to 64 mg/L (≈ 47.3 to 189 µM)
MIC [1]: 16 to 64 mg/L (≈ 47.3 to 189 µM)

Cc1ccc2oc(COc3ccc(F)c(C(N)=O)c3F)nc2c1 [Example 212, 2,6-Difluoro-3-[(5-methyl-1,3-benzoxazol-2-yl)methoxy]benzenecarboxamide]
MIC (Bacillus subtilis 168CA): < 8 mg/L
MIC [1]: 16 to 64 mg/L (≈ 50.3 to 201 µM)

COc1ccc(Br)c(-c2csc(COc3ccc(F)c(C(N)=O)c3F)n2)c1 [Example 100, 3-[4-(2-Bromo-5-methoxy-phenyl)-thiazol-2-ylmethoxy]-2,6-difluoro-benzamide]
MIC (Bacillus subtilis 168CA): < 8 mg/L
MIC [1]: < 8 mg/L

NC(=O)c1c(F)ccc(OCc2noc(-c3cccs3)n2)c1F [Example 134, 2,6-Difluoro-3-(5-thiophen-2-yl-[1,2,4]oxadiazol-3-ylmethoxy)-benzamide]
MIC (Bacillus subtilis 168CA): 16 to 64 mg/L (≈ 47.4 to 190 µM)
MIC [1]: 16 to 64 mg/L (≈ 47.4 to 190 µM)

NC(=O)c1c(F)ccc(OCc2cccc(-c3ccccc3)c2)c1F [Example 102, 3-(Biphenyl-3-ylmethoxy)-2,6-difluoro-benzamide]
MIC (Bacillus subtilis 168CA): < 8 mg/L
MIC [1]: < 8 mg/L

CCCCCCOCCOc1cccc(C(N)=O)c1 [Example 54, 3-[2-(Hexyloxy)ethoxy]benzenecarboxamide]
MIC (Bacillus subtilis 168CA): 16 to 64 mg/L (≈ 60.3 to 241 µM)
MIC [1]: 16 to 64 mg/L (≈ 60.3 to 241 µM)

NC(=O)c1cccc(OCc2nc3cc(Cl)ccc3s2)c1F [Example 219, 3-[(5-Chloro-1,3-benzothiazol-2-yl)methoxy]-2-fluorobenzenecarboxamide]
MIC (Bacillus subtilis 168CA): < 8 mg/L
MIC [1]: < 8 mg/L

NC(=O)c1c(F)ccc(OCc2nc(-c3ccc(C(F)(F)F)cc3)cs2)c1F [Example 319, 2,6-Difluoro-3-[4-(4-trifluoromethyl-phenyl)-thiazol-2-ylmethoxy]-benzamide]
MIC (Bacillus subtilis 168CA): < 8 mg/L
MIC [1]: < 8 mg/L

COc1ccc(-c2nc(COc3ccc(F)c(C(N)=O)c3F)sc2-c2cccc(OC)c2)cc1 [Example 281, 2,6-Difluoro-3-[5-(3-methoxy-phenyl)-4-(4-methoxy-phenyl)-thiazol-2-ylmethoxy]-benzamide]
MIC (Bacillus subtilis 168CA): < 8 mg/L
MIC [1]: < 8 mg/L

COc1ccc(-c2nc(COc3ccc(F)c(C(N)=O)c3F)c(C)o2)cc1 [Example 296, 2,6-Difluoro-3-[2-(4-methoxy-phenyl)-5-methyl-oxazol-4-ylmethoxy]-benzamide]
MIC (Bacillus subtilis 168CA): < 8 mg/L
MIC [1]: < 8 mg/L

NC(=O)c1c(F)ccc(OCc2nc(-c3ccc(OC(F)(F)F)cc3)cs2)c1F [Example 320, 2,6-Difluoro-3-[4-(4-trifluoromethoxy-phenyl)-thiazol-2-ylmethoxy]-benzamide]
MIC (Bacillus subtilis 168CA): < 8 mg/L
MIC [1]: < 8 mg/L

NC(=O)c1c(F)ccc(OCc2nc3cc(Oc4ccccc4)ccc3s2)c1F [Example 327, 2,6-Difluoro-3-(5-phenoxy-benzothiazol-2-ylmethoxy)-benzamide]
MIC (Bacillus subtilis 168CA): < 8 mg/L
MIC [1]: < 8 mg/L
